Test results taken from BindingDB's records for doi:10.1021/jm011053+ (Institut De Chimie Pharmaceutique Albert Lespagnol, 2002).

Assay: Inhibition of 2-[125I]iodomelatonin binding to Melatonin receptor 3 (MT3) of Syrian hamster brain membrane

| Ki | Structure (SMILES) |
| --- | --- |
| 1.1 nM | COc1ccc2[nH]cc(CCNC(C)=O)c2c1[N+](=O)[O-] [N-(2-(5-methoxy-4-nitro-1H-indol-3-yl)ethyl)acetamide] |
| 2.8 nM | COc1ccc2c(c1)c(CCNC(C)=O)cn2C [N-[2-(5-Methoxy-1-methyl-1H-indol-3-yl)-ethyl]-acetamide] |
| 0.31 nM | COc1ccc2c(c(CCNC(C)=O)cn2C)c1[N+](=O)[O-] [N-[2-(5-Methoxy-1-methyl-4-nitro-1H-indol-3-yl)-ethyl]-acetamide] |
